“Also recorded” adds a separate entry of the source.
Tests used:
[1] = Human sensory panel, detection threshold in water; type: in vivo; conditions: FIG. 2B
hTRPA1 [2] = biological target: T1, hTRPA1 (Homo sapiens, UniProt O75762); assay: Membrane potential dye fluorescence assay (FLIPR/FLEXstation), activation of hTRPA1 in transfected HEK293 cells; type: cell-based
T1 construct: The full length hTRPA1 was amplified by PCR with Kpn1 and Xho1 restriction enzyme sites; expressed in transfected cells; also transient transfection
Procedure: Once expression of TRPA1 was confirmed, 100 μl of the Blue or Red FMP dye (Molecular Devices) was added to each well of plates seeded with the transiently transfected cells. The plate was then incubated in a 37° C./5% CO2 incubator for 1 hour. The plate was read in a FLEXStation microplate reader (Molecular Devices) with an excitation of 530 nm and an emission of 565 nm. The fluorescence was monitored for 3 minutes upon exposure of the cells to a TRPA1 activating agent (e.g., cinnamaldehyde).
(§1) Samples in a 384-well plate were evaluated in a 5 minute assay on the FLIPR-Tetra™ (Molecular Devices). The assay was performed on a FLIPR™ using the excitation 510-545 nm and emission 565-625 nm filter sets. TRPA1-Transfected HEK cells, 15,000/well, were seeded overnight on poly-D-lysine coated 384 well plates in 20 μl media. Membrane Potential Assay Dye Red (Molecular Devices), 20 μl/well, was added and the plates incubated for 1 hour in a 37° C. and 5% CO2 incubator. The plates were then removed from the incubator and equilibrated to room temperature for 15 minutes before reading on the FLIPR®. The plates were read on the FLIPR® for a total of 3 minutes. Baseline fluorescence was obtained on the FLIPR® for 10 seconds followed by addition (typically 10 μl) of each agonist by the FLIPR® and read for an additional 2 minutes and 50 seconds.

hTRPV1 = biological target: T2, hTRPV1 (Homo sapiens, UniProt Q8NER1); assay: Membrane potential dye fluorescence assay, HEK293 cells expressing hTRPV1; type: cell-based; conditions: HEK293, increasing concentrations, FIG. 6
T2 construct: expressed in transfected cells
Procedure: as §1
(§2) HEK293 cells were stably transfected with one of hTRPA1, hTRPV1 or hTRPM5. CHO cells were stably transfected with one of hTRPM4B or TRPM5. Parental HEK293 and CHO cells were also used as a negative control.

parental HEK293 cells = assay: Membrane potential dye fluorescence assay in parental (non-transfected) HEK293 cells; type: cell-based, human; conditions: cells not expressing TRPA1
hTRPA1 [3] = biological target: T1, hTRPA1; assay: siRNA knockdown of hTRPA1 in hTRPA1 HEK293 cells, membrane potential dye response; type: cell-based; conditions: increasing concentrations
Procedure: HEK293 cells were transiently transfected with one of siRNA for hTRPA1, and one of Silencer pre-designed and validated siRNA (Ambion), GAPDH or negative siRNA control. 1×10^6 hTRPA1 stably transfected HEK 293 cells were plated in 35 mm dishes overnight. The next day 10 μM of each siRNA was transfected into these cells using siPORT Amine (Ambion) and incubated overnight. The following day, transfected cells were trypsinized and seeded into 384-well black, clear bottom, poly-D-lysine plates (Corning) at a density of 15,000 cells/well in a 20 μl volume and incubated in a 37° C./5% CO2 incubator overnight.
The cells were then loaded with membrane potential sensitive dye and subjected to the fluorescence assay described in Example 2.

hTRPM5 = biological target: T3, hTRPM5 (Homo sapiens, UniProt Q9NZQ8); assay: Membrane potential dye fluorescence assay, HEK293 or CHO cells expressing hTRPM5; type: cell-based; conditions: increasing concentrations, FIG. 6
T3 construct: expressed in transfected cells
T3 sequence (Q9NZQ8 1-1165): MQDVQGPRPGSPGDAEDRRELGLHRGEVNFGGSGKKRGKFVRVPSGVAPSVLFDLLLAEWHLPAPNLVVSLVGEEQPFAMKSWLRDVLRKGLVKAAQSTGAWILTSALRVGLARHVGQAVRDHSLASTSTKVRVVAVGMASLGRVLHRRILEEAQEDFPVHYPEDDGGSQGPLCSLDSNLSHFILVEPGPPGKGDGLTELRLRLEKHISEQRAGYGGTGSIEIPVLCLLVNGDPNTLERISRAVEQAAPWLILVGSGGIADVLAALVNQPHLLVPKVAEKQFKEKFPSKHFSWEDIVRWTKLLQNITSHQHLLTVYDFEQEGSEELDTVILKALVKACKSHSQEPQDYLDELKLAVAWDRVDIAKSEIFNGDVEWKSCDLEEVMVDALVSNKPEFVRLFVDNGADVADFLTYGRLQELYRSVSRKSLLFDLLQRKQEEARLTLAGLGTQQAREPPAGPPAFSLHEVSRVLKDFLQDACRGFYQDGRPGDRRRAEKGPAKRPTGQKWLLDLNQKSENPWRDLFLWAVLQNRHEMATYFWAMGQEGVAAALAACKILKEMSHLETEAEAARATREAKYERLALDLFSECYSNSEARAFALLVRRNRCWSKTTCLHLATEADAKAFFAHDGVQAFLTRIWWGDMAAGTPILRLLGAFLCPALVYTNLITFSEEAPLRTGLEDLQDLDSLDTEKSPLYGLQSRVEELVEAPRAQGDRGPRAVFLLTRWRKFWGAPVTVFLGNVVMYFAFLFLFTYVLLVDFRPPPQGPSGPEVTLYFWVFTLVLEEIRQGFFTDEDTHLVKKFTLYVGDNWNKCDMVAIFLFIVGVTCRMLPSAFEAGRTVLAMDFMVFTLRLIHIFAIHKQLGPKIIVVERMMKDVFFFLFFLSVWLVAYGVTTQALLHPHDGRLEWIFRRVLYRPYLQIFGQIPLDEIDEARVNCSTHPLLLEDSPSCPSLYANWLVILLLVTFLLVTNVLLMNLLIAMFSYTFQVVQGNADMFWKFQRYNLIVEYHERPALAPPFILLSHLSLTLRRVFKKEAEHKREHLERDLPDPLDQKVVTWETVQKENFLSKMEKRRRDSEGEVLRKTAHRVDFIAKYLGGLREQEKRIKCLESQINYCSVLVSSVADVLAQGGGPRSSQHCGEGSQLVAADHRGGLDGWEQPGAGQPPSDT
Procedure: as §1, §2

hTRPM4B = biological target: T4, hTRPM4B (Homo sapiens, UniProt Q8TD43); assay: Membrane potential dye fluorescence assay, CHO cells expressing hTRPM4B; type: cell-based; conditions: CHO, increasing concentrations, FIG. 6
T4 construct: expressed in transfected cells
Procedure: as §1, §2

mice = assay: Taste aversion (lick) assay in mice; type: in vivo, mouse; conditions: mice, increasing concentrations
Procedure: In this assay, the ability of identified lower alkyl phenols to evoke taste aversion in mice was measured. Mice were exposed to increasing concentrations of lower alkyl phenols.

T1 sequence (O75762 whole entry): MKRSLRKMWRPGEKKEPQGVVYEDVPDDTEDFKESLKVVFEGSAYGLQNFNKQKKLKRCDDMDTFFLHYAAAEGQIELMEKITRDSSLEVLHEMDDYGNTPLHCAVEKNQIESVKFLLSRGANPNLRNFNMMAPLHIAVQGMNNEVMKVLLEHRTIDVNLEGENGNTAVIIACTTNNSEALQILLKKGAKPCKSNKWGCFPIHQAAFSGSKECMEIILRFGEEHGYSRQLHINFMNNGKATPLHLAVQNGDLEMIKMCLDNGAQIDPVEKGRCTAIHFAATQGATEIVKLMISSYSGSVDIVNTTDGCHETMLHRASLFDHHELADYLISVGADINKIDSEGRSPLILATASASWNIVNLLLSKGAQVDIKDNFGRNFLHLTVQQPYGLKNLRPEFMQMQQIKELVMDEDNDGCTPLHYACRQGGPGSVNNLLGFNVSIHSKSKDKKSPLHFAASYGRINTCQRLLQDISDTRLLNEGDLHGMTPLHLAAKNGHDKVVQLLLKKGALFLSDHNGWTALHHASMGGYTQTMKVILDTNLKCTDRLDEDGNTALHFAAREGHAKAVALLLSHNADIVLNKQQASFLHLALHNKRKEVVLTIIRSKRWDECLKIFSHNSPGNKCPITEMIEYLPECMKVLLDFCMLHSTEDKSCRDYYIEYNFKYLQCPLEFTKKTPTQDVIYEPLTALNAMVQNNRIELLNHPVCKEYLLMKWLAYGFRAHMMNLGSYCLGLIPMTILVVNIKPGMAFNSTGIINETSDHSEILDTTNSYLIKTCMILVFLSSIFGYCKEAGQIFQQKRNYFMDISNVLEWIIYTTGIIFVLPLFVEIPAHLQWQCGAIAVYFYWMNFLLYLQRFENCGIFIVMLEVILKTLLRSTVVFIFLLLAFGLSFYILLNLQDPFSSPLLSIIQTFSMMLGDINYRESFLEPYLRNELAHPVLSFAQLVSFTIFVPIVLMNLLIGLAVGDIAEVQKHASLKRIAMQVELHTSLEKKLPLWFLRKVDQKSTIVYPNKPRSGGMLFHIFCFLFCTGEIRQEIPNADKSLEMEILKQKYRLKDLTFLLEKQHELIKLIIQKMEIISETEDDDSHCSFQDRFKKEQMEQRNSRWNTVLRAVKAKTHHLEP
T2 sequence (Q8NER1 whole entry): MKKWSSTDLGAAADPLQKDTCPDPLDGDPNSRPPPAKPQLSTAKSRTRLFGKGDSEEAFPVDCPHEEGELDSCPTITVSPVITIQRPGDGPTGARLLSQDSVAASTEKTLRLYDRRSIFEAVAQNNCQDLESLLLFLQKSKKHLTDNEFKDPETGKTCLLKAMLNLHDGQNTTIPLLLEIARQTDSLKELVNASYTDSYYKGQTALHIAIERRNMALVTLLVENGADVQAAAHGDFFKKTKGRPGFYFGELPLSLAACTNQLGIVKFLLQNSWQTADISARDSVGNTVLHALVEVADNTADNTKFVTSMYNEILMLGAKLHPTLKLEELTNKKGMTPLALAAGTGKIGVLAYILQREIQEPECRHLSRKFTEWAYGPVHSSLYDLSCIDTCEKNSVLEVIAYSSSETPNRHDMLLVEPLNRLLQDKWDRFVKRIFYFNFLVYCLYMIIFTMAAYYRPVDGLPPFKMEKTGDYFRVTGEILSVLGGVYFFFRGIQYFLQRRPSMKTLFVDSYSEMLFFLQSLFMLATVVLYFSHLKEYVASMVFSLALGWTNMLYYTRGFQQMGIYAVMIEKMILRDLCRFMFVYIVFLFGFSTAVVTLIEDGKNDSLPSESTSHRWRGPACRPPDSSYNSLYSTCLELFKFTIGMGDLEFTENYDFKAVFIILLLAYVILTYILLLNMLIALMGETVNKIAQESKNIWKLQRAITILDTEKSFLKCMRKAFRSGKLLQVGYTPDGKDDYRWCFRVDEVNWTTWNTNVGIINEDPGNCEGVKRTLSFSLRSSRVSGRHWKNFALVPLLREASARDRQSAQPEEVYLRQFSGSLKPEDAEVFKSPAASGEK
T4 sequence (Q8TD43 whole entry): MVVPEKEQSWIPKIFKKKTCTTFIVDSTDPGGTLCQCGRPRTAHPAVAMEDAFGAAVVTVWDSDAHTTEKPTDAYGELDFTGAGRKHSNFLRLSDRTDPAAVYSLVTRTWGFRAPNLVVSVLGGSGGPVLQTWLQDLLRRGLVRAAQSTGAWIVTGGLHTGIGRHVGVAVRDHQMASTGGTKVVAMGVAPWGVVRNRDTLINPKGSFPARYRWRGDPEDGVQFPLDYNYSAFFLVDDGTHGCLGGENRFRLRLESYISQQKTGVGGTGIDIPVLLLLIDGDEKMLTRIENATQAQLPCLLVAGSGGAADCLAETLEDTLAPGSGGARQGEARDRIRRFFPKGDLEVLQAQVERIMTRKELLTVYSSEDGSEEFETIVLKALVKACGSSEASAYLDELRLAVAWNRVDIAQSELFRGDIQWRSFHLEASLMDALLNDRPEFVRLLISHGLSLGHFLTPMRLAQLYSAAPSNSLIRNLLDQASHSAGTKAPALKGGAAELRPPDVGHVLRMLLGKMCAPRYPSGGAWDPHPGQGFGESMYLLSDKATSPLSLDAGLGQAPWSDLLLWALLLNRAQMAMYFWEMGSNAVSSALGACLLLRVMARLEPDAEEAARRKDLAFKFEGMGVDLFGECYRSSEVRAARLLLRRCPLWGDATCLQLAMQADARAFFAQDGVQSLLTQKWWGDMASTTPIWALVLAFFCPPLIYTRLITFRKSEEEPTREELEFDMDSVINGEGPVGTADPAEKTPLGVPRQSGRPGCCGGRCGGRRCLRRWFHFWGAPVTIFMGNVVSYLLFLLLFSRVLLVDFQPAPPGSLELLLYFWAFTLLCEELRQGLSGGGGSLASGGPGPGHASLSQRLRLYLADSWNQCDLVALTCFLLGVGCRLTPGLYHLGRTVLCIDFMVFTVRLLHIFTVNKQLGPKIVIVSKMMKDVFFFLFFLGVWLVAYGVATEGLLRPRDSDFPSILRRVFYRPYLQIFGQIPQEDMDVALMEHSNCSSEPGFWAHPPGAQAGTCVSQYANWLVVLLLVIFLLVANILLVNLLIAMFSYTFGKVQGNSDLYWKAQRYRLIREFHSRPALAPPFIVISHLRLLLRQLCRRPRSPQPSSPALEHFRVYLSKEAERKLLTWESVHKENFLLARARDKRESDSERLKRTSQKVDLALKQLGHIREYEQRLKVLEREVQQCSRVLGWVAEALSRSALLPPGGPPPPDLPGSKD

For `Cc1ccc(C(C)C)c(O)c1` [Thymol], the “average detection threshold in water” value [1] was “approximately 5 μM”, the “activation of TRPA1 over standard value from cells not expressing TRPA1” value (hTRPA1 [2]; at 10 μM, FIG. 3B) was “about 7 fold” and the “TRPA1 activation / agonist activity (in words)” value (hTRPA1 [2]; hTRPA1 HEK293 cells, increase in fluorescence of membrane potential dye) was “at a level similar to that of cinnamaldehyde; also recorded: generated an increase in relative fluorescence”. The “response of cells expressing hTRPV1 (in words)” value (hTRPV1) was “did not generate the same increase in relative fluorescence”, the “response of parental HEK293 cells (in words)” value (parental HEK293 cells) was “no change in activation” and the “fluorescence response of cells transfected with hTRPA1 siRNA versus GAPDH or negative siRNA control (in words)” value (hTRPA1 [3]) was “did not increase as much as”. The “response of cells expressing hTRPM5 (in words)” value (hTRPM5) was “did not generate the same increase in relative fluorescence”, the “response of cells expressing hTRPM4B (in words)” value (hTRPM4B) was “did not generate the same increase in relative fluorescence” and the “taste aversion, licks/trial (in words)” value (mice) was “a decrease in licks/trial”.

— patent US7674594B2, “Screening assay for inhibitors of TRPA1 activation by a lower alkyl phenol” (Redpoint Bio Corporation, priority 2006, dated 2010)
